Test results published in patent US11692175B2, “Methods for generation of pluripotent and multipotent cells” (The USA, as represented by the Secretary, Dept. of Health …, priority 2012, dated 2023).

What was measured:
HUVEC [1] = assay: Direct cardiomyocyte differentiation of HUVEC; type: cell-based, human
Protocol: Finally, equal numbers of HUVEC (untreated and cd47-mo treated at passage 1) were plated in 6-well plates with EGM2 media for 24 hours. The next day, EGM2 medium was replaced with cardiomyocyte differentiation media (Millipore). […] CD47-MO cells survived up to 10 days. Thus, antisense suppression of CD47 is sufficient to induce reprogramming of primary endothelial cells into cardiomyocyte lineage.

[2] = system: WT splenic T cells from c-Myc-EGFP knock-in mice; assay: c-Myc mRNA after CD47 morpholino knockdown in T cells; type: cell-based, mouse
Protocol: RNA extraction and Real Time PCR: Total RNA was extracted using TRIzol® reagent (Invitrogen, Rockville, Md.) 24-36 hours after transfection or as indicated. Harvested mouse tissues were frozen in liquid nitrogen or placed into RNA Later™ RNA Stabilization Reagent (Ambion, Life Technologies, Grand Island, N.Y.). Whole organs (lungs, spleen, kidney, testis, skeletal muscle, brain, heart, and liver) were homogenized in TRIzol® reagent, and RNA was isolated, cDNA was prepared using First Maxima First Strand cDNA Synthesis kit for RT-qPCR (Fermentas Life Sciences, Glen Burnie, Md.). Real Time PCR was performed using the primers listed herein as SEQ ID NOs: 3-34, and SYBR Green PCR master reaction mix (AB applied Sciences, Life Technologies, Grand Island, N.Y.) on an MJ Research OPTICON I instrument (Bio-Rad) with the following amplification program: 95° C. for 15 minutes, followed by 40 cycles of 95° C. for 15 seconds, 58° C. for 20 seconds, 72° C. for 25 seconds, and 7° C. for 1 minute. Melting curves were performed for each product from 30° C. to 95° C. reading every 0.5° C. with a 6-second dwell time. The fold changes in mRNA expression were calculated by normalizing to hypoxanthine phosphoribosyltransferase (HPRT1) and TATA-box binding protein associated factor (TAF9) for mouse tissues and endothelial cells, or β-2 microglobulin (B2M) mRNA levels for spleen and isolated splenocytes. […]

HUVEC [3] = assay: EB formation of HUVEC in serum free medium; type: cell-based, human; settings: after 3-6 days
Protocol: (§1) A new vial of HUVEC at passage 1 was thawed and split in to two 25 cm^3 Nunc tissue culture flasks. One flask (P1) was treated with CD47-MO (2.5 μM). The other was kept as untreated. The HUVEC were transferred in to new Nunc tissue culture flask 75 cm^3 and cultured for 2 weeks using EGM2 medium. After 2 weeks, the HUVEC (untreated and CD47-MO treated) were assessed for generation of EBs, neural differentiation, and cardiomyocytes differentiation. […] Direct Neural Differentiation media: Equal numbers of HUVEC cells (untreated and cd47-mo) were cultured with neural basal media (same for mouse lung endothelial cells) for 6 days. […] After 6 days, the neural basal media was replaced with neural differentiation media (same used for mouse lung endothelial cells). None of the untreated HUVEC survived.

HUVEC [4] = assay: Direct neural differentiation of HUVEC; type: cell-based, human
Protocol: (§2) Therefore, antisense suppression of CD47 is sufficient to induce reprogramming of primary endothelial cells of a mesodermal lineage into an ectodermal lineage.
as §1

HUVEC [5] = assay: Sustained proliferation / self-renewal of HUVEC in continuous culture; type: cell-based, human
Description: Human umbilical vein endothelial cells (HUVEC), which express CD47, normally become senescent with repeated passage in tissue culture (FIG. 16A).
as §2

CD47 = assay: In vivo morpholino knockdown of CD47 in WT mice; set-up: species or system mouse; settings: for Oct4 mRNA level in spleen / Sox2 mRNA level in spleen / c-Myc mRNA level in spleen: at 48 hours, WT mice; for CD47 protein expression in vivo: intraperitoneal injection into WT mice
Protocol: RNA extraction and Real Time PCR: Total RNA was extracted using TRIzol® reagent (Invitrogen, Rockville, Md.) 24-36 hours after transfection or as indicated. Harvested mouse tissues were frozen in liquid nitrogen or placed into RNA Later™ RNA Stabilization Reagent (Ambion, Life Technologies, Grand Island, N.Y.). Whole organs (lungs, spleen, kidney, testis, skeletal muscle, brain, heart, and liver) were homogenized in TRIzol® reagent, and RNA was isolated, cDNA was prepared using First Maxima First Strand cDNA Synthesis kit for RT-qPCR (Fermentas Life Sciences, Glen Burnie, Md.). Real Time PCR was performed using the primers listed herein as SEQ ID NOs: 3-34, and SYBR Green PCR master reaction mix (AB applied Sciences, Life Technologies, Grand Island, N.Y.) on an MJ Research OPTICON I instrument (Bio-Rad) with the following amplification program: 95° C. for 15 minutes, followed by 40 cycles of 95° C. for 15 seconds, 58° C. for 20 seconds, 72° C. for 25 seconds, and 7° C. for 1 minute. Melting curves were performed for each product from 30° C. to 95° C. reading every 0.5° C. with a 6-second dwell time. The fold changes in mRNA expression were calculated by normalizing to hypoxanthine phosphoribosyltransferase (HPRT1) and TATA-box binding protein associated factor (TAF9) for mouse tissues and endothelial cells, or β-2 microglobulin (B2M) mRNA levels for spleen and isolated splenocytes. B2M was used for normalization of mRNA levels in human cells. Note that the total RNA yield per cell was higher for all CD47-null and CD47-deficient cells and tissues as compared to WT.
CD47 knockdown in T cells and in WT mice: A translation-blocking antisense morpholino oligonucleotide complementary to human and murine CD47 ([…]; SEQ ID NO: 35) and a 5-base mismatch control morpholino (CGTgACAGcCAcGACCgACTGCgCA; SEQ ID NO: 36) were obtained from GeneTools, LLC (Philomath, Oreg.) as previously described (Isenberg et al., Circ Res 100, 712-720, 2007). Primary T cells isolated from c-Myc EGFP knock-in mouse were transfected using morpholinos (2.5 μM) along with Endo-porter (GeneTools, LLC) delivery reagent according to manufacturer's instructions. Mice were treated by injection of 750 μl of 10 μM morpholino in saline as described (Maxhimer et al., Sci. Transl. Med. 1, 3ra7, 2009). Organs were harvested for mRNA isolation after 48 hours.

HUVEC [6] = assay: MTS proliferation assay of treated HUVEC; type: cell-based, human
Protocol: Cell proliferation assays: Equal numbers of mouse lung endothelial cells from WT and CD47 (Passage 1) were plated in 96 well plates using RPMI+1% FBS. After 72 hours, net cell proliferation was assessed by the increase in formazan absorbance versus controls assessed at time 0 using Cell Titer 96R aqueous MTS kit (Promega, Madison, Wis.). DNA synthesis was measured using a BrdU Assay (EMD Biosciences, Billerica, Mass.).
Proliferative capacities of the treated HUVEC (CD47 morpholino, 7N3 peptide, or 604 control peptide) were assessed using MTS assays.

CGTCACAGGCAGGACCCACTGCCCA (all phosphorodiamidate morpholino (PMO)) [CD47 morpholino]
survival in cardiomyocyte differentiation media (HUVEC [1]): up to 10 days
survival and differentiation in cardiomyocyte differentiation media (HUVEC [1]; untreated HUVEC unable to survive after 3 days): survived and underwent differentiation
increase in c-Myc mRNA level ([2]; at 24 h, morpholino 2.5 μM): 7 fold
c-Myc mRNA expression (FIG. 6A) ([2]; in words, legend says WT lung endothelial cells): increases
cell aggregation in serum free medium (HUVEC [3]): formed different phenotype cell aggregation
survival in neural basal media (HUVEC [4]; 6 days, CD47-MO 2.5 μM): survived better than untreated
phenotype in neural differentiation media (HUVEC [4]; after 6 days neural basal media): exhibited neural phenotype
appearance of cells with neuronal phenotypes (HUVEC [4]; direct transfer into neural differentiation medium): sporadic appearance of cells with neuronal phenotypes
survival in neural differentiation media (HUVEC [4]; numbers were low): up to 15 days
self-renewal (HUVEC [5]; antisense CD47 morpholino at 2.5 μM, one treatment): enabled self-renewal
proliferative response after second treatment (HUVEC [5]; second treatment, same concentration (2.5 μM)): enhanced proliferative response
Oct4 mRNA level in spleen (CD47): induction
Sox2 mRNA level in spleen (CD47): induction
c-Myc mRNA level in spleen (CD47): induction
Oct4 mRNA level in spleen (CD47; listed as CD47-MO): elevates
Sox2 mRNA level in spleen (CD47; listed as CD47-MO): elevates
c-Myc mRNA level in spleen (CD47; listed as CD47-MO): elevates
CD47 protein expression in vivo (CD47): significantly decreased
CD47 protein expression in vivo (CD47; listed as CD47-morpholino): knockdown
proliferation (MTS) (HUVEC [6]; 3 weeks post-treatment, relative to control HUVEC): significantly increased proliferation
proliferation (MTS) (HUVEC [6]; 6 days post-treatment): slight but not significant enhancement of proliferation
